Laboratory results: ChEMBL document CHEMBL4145555, “Synthetic Approaches to New Drugs Approved During 2016” (J Med Chem, 2018)

Assay: Half life in human plasma at 20 mg/day, po
Format: ADME, organism-based

half-life: 10 to 12 h
Structure (SMILES): Cl.Clc1ccc(CCCOCCCN2CCCCC2)cc1 [PITOLISANT HYDROCHLORIDE]
